IC50 and EC50 data for 21 compounds are collected here from patent US11760744B2, “Fused ring compounds” (Genentech, Inc., priority 2018, dated 2023).

The target of assay [1] is T1, K-Ras G12C mutant protein (Homo sapiens, UniProt P01116, G12C).
T1 construct: K-Ras G12C (residues 2-188) and SOS1 (residues 564-1049) had N-terminal 6-His; made in house; host or cells: E. coli
The assay can be described thus: K-Ras G12C HTRF assay. Type of assay: biochemical. To be noted: Table 1; unit or assay not given; several values in one cell. The protocol:
In the above definition of R^2, the electrophilic moiety that is capable of forming a covalent bond with a cysteine residue is determined via K-Ras G12C-alkylation studies and Homogeneous Time Resolved Fluorescence (HTRF) assays. The G12C mutation of the K-Ras gene is a change in amino acid from glycine to cysteine at the 12th amino acid. The compounds according to the present disclosure were discovered using the HTRF assay and the K-Ras G12C-alkylation assay, as further detailed elsewhere herein below, and then NMR spectroscopy was later used to validate the specificity with which the molecule was attaching to G12C.
On the technique in general: In TR-FRET formats the signal depends on donor and acceptor labels being close together.

Assay [2] addresses T2, K-Ras G12C (Homo sapiens, UniProt P01116, G12C). The assay can be described thus: K-Ras G12C, SOS1, Raf RBD HTRF assay for inhibition of GTP exchange. More on the design: K-Ras G12C (residues 2-188) and SOS1 (residues 564-1049) had N-terminal 6-His; made in house; host or cells: E. coli. The class given is biochemical. As to conditions: 18 hours preincubation with K-Ras G12C at room temperature; SOS1-mediated GTP exchange. The procedure, abridged: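 After 18 h at room temperature with compound, SOS1 (1.25 nM final) started exchange to GTP (150 μM final). C-Raf RBD, Tb-anti-FLAG and D2-anti-his (50, 1 and 12.5 nM) were then added. The 665/615 nm HTRF ratio was read after 2 h; buffer was HEPES/NaCl, 1 mM MgCl2, BSA, Tween-20 and DTT.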
Target sequence in this assay (P01116 2-188 isoform P01116-2 G12C): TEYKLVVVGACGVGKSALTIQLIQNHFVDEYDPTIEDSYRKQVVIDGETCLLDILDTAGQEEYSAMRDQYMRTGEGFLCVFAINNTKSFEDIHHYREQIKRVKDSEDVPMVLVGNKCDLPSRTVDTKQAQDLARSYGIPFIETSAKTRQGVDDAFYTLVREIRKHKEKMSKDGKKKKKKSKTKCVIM

The target of assay [3] is T2, K-Ras G12C. As to the kind of experiment: Western blot assay for in cell alkylation of K-Ras G12C (HCC1171 cells). Type of assay: cell-based. More on the design: endogenous in cells; host or cells: HCC1171. As to conditions: 18 hours at 37° C., 7 point dose response. The procedure, abridged:
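HCC1171 cells exposed to compounds for 18 h at 37° C, lysed, and analysed by SDS-PAGE/western blot with anti-K-Ras antibody and fluorescent secondary. Alkylated K-Ras separated by band shift; % alkylation = FI(alkylated)/(FI(alkylated)+FI(unalkylated))×100, IC50 from 7-point dose response.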
Target sequence in this assay (P01116 1-188 isoform P01116-2 G12C): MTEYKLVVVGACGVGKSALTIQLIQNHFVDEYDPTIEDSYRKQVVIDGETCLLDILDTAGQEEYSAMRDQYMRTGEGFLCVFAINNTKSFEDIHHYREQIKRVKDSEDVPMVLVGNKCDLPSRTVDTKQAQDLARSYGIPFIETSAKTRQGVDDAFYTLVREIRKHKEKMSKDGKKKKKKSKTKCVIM

The structures appear in SMILES notation.

T1 sequence (P01116 2-188 isoform P01116-2 G12C): as the sequence (P01116 2-188 isoform P01116-2 G12C) above

The term IC50 denotes the concentration that gives 50% inhibition. A high value points to weaker potency in that assay. As for `C=CC(=O)N1CCN(c2ncnc3c2CC(C)C(c2nc(N)cc(C)c2C(F)(F)F)C3)CC1` (single isomer, unassigned) [Example 1, 1-(4-(7-(6-amino-4-methyl-3-(trifluoromethyl)pyridin-2-yl)-6-methyl-5,6,7,8-tetrahydroquinazolin-4-yl)piperazin-1-yl)prop-2-en-1-one], the IC50 in assay [1] was greater than 50000 nM.

Take `C=CC(=O)N1CCC(C#N)(c2nc(OCC3CCCN3C)nc3c2CCC(c2cc(O)cc4ccccc24)C3)CC1` (stereo not drawn) [Example 7, 1-acryloyl-4-(7-(3-hydroxynaphthalen-1-yl)-2-((1-methylpyrrolidin-2-yl)methoxy)-5,6,7,8-tetrahydroquinazolin-4-yl)piperidine-4-carbonitrile]: in assay [1], 87 nM corresponded to half-maximal inhibition (IC50).

The compound `COc1ccc(CN(Cc2ccc(OC)cc2)c2cc(C)c(I)c(C3Cc4nc(OCC5CCCN5C)nc(N5CCN(C(=O)OC(C)(C)C)CC5C)c4CC3C)c2F)cc1` (stereo not drawn) [Example 14, tert-butyl 4-(7-(3-(bis(4-methoxybenzyl)amino)-2-fluoro-6-iodo-5-methylphenyl)-6-methyl-2-((1-methylpyrrolidin-2-yl)methoxy)-5,6,7,8-tetrahydroquinazolin-4-yl)-3-methylpiperazine-1-carboxylate] showed an IC50 in assay [1] greater than 50000 nM.

For the compound `C=CC(=O)N1CCN(c2nc(OCC3CCCN3C)nc3c2CC(C)C(c2c(C)ccc4[nH]ncc24)C3)CC1` (stereo not drawn) [Example 18, 1-(4-(6-methyl-7-(5-methyl-1H-indazol-4-yl)-2-((1-methylpyrrolidin-2-yl)methoxy)-5,6,7,8-tetrahydroquinazolin-4-yl)piperazin-1-yl)prop-2-en-1-one], the IC50 in assay [1] was determined as 24 nM.

In turn, `C=CC(=O)N1CCN(c2nc(OCC3CCCN3C)nc3c2CCC2(CCCCC2)C3)CC1` (stereo not drawn) [Example 25, 1-(4-(2′-((1-methylpyrrolidin-2-yl)methoxy)-5′,8′-dihydro-6′H-spiro[cyclohexane-1,7′-quinazolin]-4′-yl)piperazin-1-yl)prop-2-en-1-one] came in with an IC50 in assay [1] of 5400 nM.

As a reminder, the EC50 is the concentration needed to bring the measured effect to its halfway point. The compound `C=CC(=O)N1CCN(c2ncnc3c2CCC(c2nc(N)cc(C)c2C(F)(F)F)C3)CC1` (stereo not drawn) [Example 26, 1-[4-[7-[6-amino-4-methyl-3-(trifluoromethyl)-2-pyridyl]-5,6,7,8-tetrahydroquinazolin-4-yl]piperazin-1-yl]prop-2-en-1-one] displayed an IC50 against K-Ras G12C [2] of 270 nM. This compound gave an EC50 on K-Ras G12C [3] of 2200 nM.

On K-Ras G12C [2], `C=CC(=O)N1CCN(c2ncnc3c2CC[C@H](c2nc(N)cc(C)c2C(F)(F)F)C3)CC1` [Example 26a, (S)-1-(4-(7-(6-amino-4-methyl-3-(trifluoromethyl)pyridin-2-yl)-5,6,7,8-tetrahydroquinazolin-4-yl)piperazin-1-yl)prop-2-en-1-one] had an IC50 of 180 nM. At K-Ras G12C [3], this compound showed an EC50 of 1200 nM.

In turn, `C=CC(=O)N1CCN(c2ncnc3c2CC[C@@H](c2nc(N)cc(C)c2C(F)(F)F)C3)CC1` [Example 26b, (R)-1-(4-(7-(6-amino-4-methyl-3-(trifluoromethyl)pyridin-2-yl)-5,6,7,8-tetrahydroquinazolin-4-yl)piperazin-1-yl)prop-2-en-1-one] gave an IC50 on K-Ras G12C [2] of 4800 nM. Also, the EC50 on K-Ras G12C [3] amounted to 17000 nM.

Compound `C=CC(=O)N1CCN(c2nc(OCC3CCCN3C)nc3c2CCCC3)CC1` (stereo not drawn) [Example 45, 1-(4-(2-((1-methylpyrrolidin-2-yl)methoxy)-5,6,7,8-tetrahydroquinazolin-4-yl)piperazin-1-yl)prop-2-en-1-one] yielded an IC50 in assay [1] greater than 50000 nM.

With `CN1CCCC1COc1nc2c(c(N3CCN(C(=O)/C=C/CNC45CC(C4)C5)C(CC#N)C3)n1)CCC(c1cccc3ccccc13)C2` (stereo not drawn) [Example 48, (E)-2-(1-(4-(bicyclo[1.1.1]pentan-1-ylamino)but-2-enoyl)-4-(2-((1-methylpyrrolidin-2-yl)methoxy)-7-(naphthalen-1-yl)-5,6,7,8-tetrahydroquinazolin-4-yl)piperazin-2-yl)acetonitrile], the concentration for half-maximal inhibition (IC50) in assay [1] was 11 nM.

Consider `CN1CCC[C@H]1COc1nc2c(c(N3CCN(C(=O)/C=C/CNC45CC(C4)C5)[C@@H](CC#N)C3)n1)CCC(c1cccc3ccccc13)C2` (stereo partly drawn) [Example 48a, 2-((2S)-1-((E)-4-(bicyclo[1.1.1]pentan-1-ylamino)but-2-enoyl)-4-(2-(((S)-1-methylpyrrolidin-2-yl)methoxy)-7-(naphthalen-1-yl)-5,6,7,8-tetrahydroquinazolin-4-yl)piperazin-2-yl)acetonitrile], for which, on K-Ras G12C [2], the IC50 worked out at 11 nM. The compound further returned an EC50 on K-Ras G12C [3] of 150 nM.

`C=CC(=O)N1CCN(c2nc(OCC3CCCN3C)nc3c2CCC(c2cc(O)cc4ccccc24)C3)CC1` (stereo not drawn) [Example 49, 1-(4-(7-(3-hydroxynaphthalen-1-yl)-2-((1-methylpyrrolidin-2-yl)methoxy)-5,6,7,8-tetrahydroquinazolin-4-yl)piperazin-1-yl)prop-2-en-1-one] returned an IC50 in assay [1] of 23 nM.

`C=CC(=O)N1CCN(c2nc(OC[C@@H]3CCCN3C)nc3c2CCC(c2cc(O)cc4ccccc24)C3)CC1` (stereo partly drawn) [Example 49a, 1-[4-[7-(3-hydroxy-1-naphthyl)-2-[[(2S)-1-methylpyrrolidin-2-yl]methoxy]-5,6,7,8-tetrahydroquinazolin-4-yl]piperazin-1-yl]prop-2-en-1-one] yielded an IC50 at K-Ras G12C [2] of 23 nM. The compound also yielded an EC50 at K-Ras G12C [3] of 170 nM.

On to `C=CC(=O)Oc1cc(C2CCc3c(nc(OCC4CCCN4C)nc3N3CCN(C(=O)C=C)CC3)C2)c2ccccc2c1` (stereo not drawn) [Example 50, 4-(4-(4-acryloylpiperazin-1-yl)-2-((1-methylpyrrolidin-2-yl)methoxy)-5,6,7,8-tetrahydroquinazolin-7-yl)naphthalen-2-yl acrylate], for which, in assay [1], the IC50 turned out to be 160 nM.

For the compound `C=CC(=O)Oc1cc(C2CCc3c(nc(OC[C@@H]4CCCN4C)nc3N3CCN(C(=O)C=C)CC3)C2)c2ccccc2c1` (stereo partly drawn) [Example 50a, 4-(4-(4-acryloylpiperazin-1-yl)-2-(((S)-1-methylpyrrolidin-2-yl)methoxy)-5,6,7,8-tetrahydroquinazolin-7-yl)naphthalen-2-yl acrylate], the IC50 at K-Ras G12C [2] worked out at 160 nM. The same compound gave a 50% effective concentration (EC50) on K-Ras G12C [3] of 170 nM.

On K-Ras G12C [2], `C=CC(=O)N1CCN(c2nc(OCC[C@@H]3CCCN3C)nc3c2CCC(c2cc(O)cc4ccccc24)C3)CC1` (stereo partly drawn) [Example 52a, 1-(4-(7-(3-hydroxynaphthalen-1-yl)-2-(2-((S)-1-methylpyrrolidin-2-yl)ethoxy)-5,6,7,8-tetrahydroquinazolin-4-yl)piperazin-1-yl)prop-2-en-1-one] showed an IC50 of 51 nM. Besides, the concentration giving a half-maximal response (EC50) on K-Ras G12C [3] is 990 nM.

`C=CC(=O)N1CCN(c2nc(OCCCN3CCOCC3)nc3c2CCC(c2cc(O)cc4ccccc24)C3)[C@@H](C)C1` (stereo partly drawn) [Example 53a, 1-((3S)-4-(7-(3-hydroxynaphthalen-1-yl)-2-(3-morpholinopropoxy)-5,6,7,8-tetrahydroquinazolin-4-yl)-3-methylpiperazin-1-yl)prop-2-en-1-one] showed an IC50 against K-Ras G12C [2] of 22 nM. On K-Ras G12C [3], this compound registered an EC50 of 230 nM.

For the compound `C=CC(=O)N1CCN(c2nc(OCC3CCC(=O)N3)nc3c2CCC(c2cc(O)cc4ccccc24)C3)[C@@H](C)C1` (stereo partly drawn) [Example 55a, 5-(((4-((S)-4-acryloyl-2-methylpiperazin-1-yl)-7-(3-hydroxynaphthalen-1-yl)-5,6,7,8-tetrahydroquinazolin-2-yl)oxy)methyl)pyrrolidin-2-one], the IC50 against K-Ras G12C [2] turned out to be 1400 nM. For the same compound, the 50% effective concentration (EC50) on K-Ras G12C [3] turned out to be 6700 nM.

As to `C=CC(=O)N1C[C@H](C)N(c2nc(OC[C@@H]3CCCN3C)nc3c2CCC(c2cc(O)cc4ccccc24)C3)[C@@H](C)C1` (stereo partly drawn) [Example 56a, 1-((3S,5S)-4-(7-(3-hydroxynaphthalen-1-yl)-2-(((S)-1-methylpyrrolidin-2-yl)methoxy)-5,6,7,8-tetrahydroquinazolin-4-yl)-3,5-dimethylpiperazin-1-yl)prop-2-en-1-one], the IC50 at K-Ras G12C [2] amounted to 73 nM. At K-Ras G12C [3], a half-maximal effect (EC50) was put at 620 nM.

In the case of `C=CC(=O)N1CCN(c2nc(OC[C@@H]3CCCN3C)nc3c2CCC(c2cc(O)cc4ccccc24)C3)CC1CC#N` (stereo partly drawn) [Example 58a, 2-(1-acryloyl-4-(7-(3-hydroxynaphthalen-1-yl)-2-(((S)-1-methylpyrrolidin-2-yl)methoxy)-5,6,7,8-tetrahydroquinazolin-4-yl)piperazin-2-yl)acetonitrile], the IC50 against K-Ras G12C [2] is 28 nM. Moreover, a half-maximal effect on K-Ras G12C [3] (EC50) was put at 10 nM.

At K-Ras G12C [2], `C=CC(=O)Oc1cc(C2CCc3c(nc(OC[C@@H]4CCCN4C)nc3N3CCN(C(=O)C=C)C(CC#N)C3)C2)c2ccccc2c1` (stereo partly drawn) [Example 59a, 4-(4-(4-acryloyl-3-(cyanomethyl)piperazin-1-yl)-2-(((S)-1-methylpyrrolidin-2-yl)methoxy)-5,6,7,8-tetrahydroquinazolin-7-yl)naphthalen-2-yl acrylate] returned a half-maximal inhibitory concentration (IC50) of 250 nM. In addition, the EC50 at K-Ras G12C [3] was 29 nM.
